Laboratory results taken from patent US4778797A, “Organo-silicon compounds, process for the manufacture of same, and anti-tumor agent comprising the compound” (Sanwa Kagaku Kenkyusho Co., Ltd., priority 1984, dated 1988).
In brackets after ≈: the same amount, converted by molar mass. Like-named read-outs stand apart in the source and are kept apart here.

How the values were obtained:
[1] = test system: B-16 melanoma; test: Anti-tumor action to B-16 melanoma; type: in vivo, BDF1 female mice; conditions: oral, tumor weight at 21st day; for inhibition in vivo at 250 mg/kg/day: 250 mg/kg/day × 3
Text: B-16 melanoma (1×10^5 cells) was transplanted under skin of BDF1 female mice (age of about 5 weeks), and each of testing compounds was orally dosed at 1st, 5th and 9th day after the transplantation. At 21st day after the transplantation, the mice were killed to measure a weight of the cancerous tumor and to finally determine an inhibition ratio.

[2] = test system: Lewis lung carcinoma; test: Anti-tumor action to Lewis lung carcinoma (primary tumor weight and metastasis); type: in vivo, BDF1 mice; conditions: Mus musculus, po, 504 h
Text: Lewis lung carcinoma (1×10^5 cells) was transplanted under skin of right ear of BDF1 mice (age of about 5 weeks), and each of testing compounds was orally dosed 10 times from 1st to 10th day after the transplantation. At 21st day after the transplantation, the mice were killed to measure a weight of the primarly tumor and to extract a lung. The lung was fixed in a conventional manner to count a number of metastasis on cancerous cells with use of a stereomicroscope having a low magnification. An anti-tumor action of each compound was expressed with an inhibition in weight of the primarly tumor and an inhibition of the metastasis.

[3] = test system: Colon-38 carcinoma; test: Anti-tumor action to Colon-38 carcinoma; type: in vivo, BDF1 mice; conditions: oral, tumor weight at 28th day
Method: 0.02 ml of 10(W/V)% cell suspension prepared from a solid cancer cell (Colon-38 carcinoma) were transplanted under skin of BDF1 mice (20-21 g, age of about 5 weeks), and each of testing compounds was orally dosed to the mice at 1st, 5th and 9th day after the transplantation. A major and minor axes of the cancerous tumor were measured at 11th, 14th, 21st, 25th and 28th day after the transplantation to calcurate volume of the tumor in accordance with the following.
At 28th day from the transplantation, the mice were killed and each of the cancerous tumors was extracted to measure its weight and to determine an inhibitation ratio in comparison with a non-treated control group.

[4] = test system: KB cells; test: Suppression of KB cell proliferation in vitro; type: cell-based; conditions: Homo sapiens, 72 h, 3 days exposure, Trypan Blue dye-exclusion, read-out: KB IC50 (50% inhibition density to tumor cell proliferation)
Method: In a cultivation device (5% CO2, 37° C.), KB cells (1×10^4 cells) were cultivated for 24 hours in a culture tube with 1 ml of Eagle culture medium added 10% ox serum, the used culture medium was thrown away to change with a fresh culture medium (0.9 ml), and then 0.1 ml of a similar culture fluid containing each testing compound prepared by the process as described in the Examples was added to cultivate the same for further 3 days. Thereafter, living cells were dyed with Tripan Blue and measured same through a dye-exclusion method.
A control was treated in a manner similar to the above, except that a culture fluid containing no compound of the invention was added.
50% inhibition density (IC50) to the tumor cell proliferation was decided through the tests between the testing group and the control group to obtain results as shown in following Table 1.

[5] = test system: L-1210 leukemia; test: Anti-tumor action to L-1210 leukemia; type: in vivo, BDF1 female mice; conditions: Mus musculus, L1210, oral; for ILS at 250 mg/kg/day: 250 mg/kg/day × 3 (1st, 5th, 9th day); for ILS at 500 mg/kg/day: 500 mg/kg/day × 3 (1st, 5th, 9th day)
Method: L-1210 leukemia cell (1×10^5 cells) was transplanted in a abdominal cavity of BDF1 female mice (20-21 g, age of about 5 weeks), and each of testing compounds was orally dosed in 250 mg/kg or 500 mg/kg at 1st, 5th and 9th day after the transplantation to check days of life of the mice. [formula]

[6] = Acute toxicity; type: in vivo, CrJ/CDI female mice; conditions: mouse, in vivo; oral gavage, suspended in 0.1% P-1570, female mice, 21 days observation
Method: Each of testing compounds suspended in 0.1% P-1570 was orally and forcedly dosed through a gastric probe to CrJ/CDI female mice (21 to 22 g, age of about 5 weeks). An identification number was given to each mouse, and a weighing and observation on general behavior were carried out just before the dosage and each day after the same. Each of died mice was subjected without delay to an autopsy to check the same, more particularly in detail on enterona. All of living mice were killed at 21st day from the dosage to carry out an autopsy for checking the same, more particularly on entrails.
An LD50 was calculated in accordance with the Leed and Munch's method.
A similar test was carried out on each controls of 1-[2-[(2-trimethylsilylethyl)thio]ethylcarbamoyl]-5-fluorouracil and 1-hexylcarbamoyl-5-fluorouracil (HCFU) which is one of exemplary anti-tumor agents.

[7] = test system: MM-46 adenocarcinoma; test: Anti-tumor action to MM-46 adenocarcinoma; type: in vivo, C3H/He female mice; conditions: oral, 250 mg/kg/day × 3 (1st, 5th, 9th day); days to death, testing vs control group
Text: MM-46 adenocarcinoma (1×10^6 cells) was transplanted under skin of C3H/He female mice (age of about 5 weeks), and each of testing compounds was orally dosed at 1st, 5th and 9th day after the transplantation to check days of life on the mice.
T: days to death on testing group, and
C: days to death on control group.

[8] = Mus musculus, B16, 504 h, 300 mg/kg/day × 3, read-out: B-16 melanoma Inhibition ratio
[9] = 13.5 mg/kg/day × 10 + Amputation, 21st day, read-out: Inhibition Ratio weight LLC
[10] = 13.5 mg/kg/day × 10 + Amputation, lung, 21st day, printed in parentheses, read-out: Inhibition Ratio metastasis
[11] = 27 mg/kg/day × 10 + Amputation, 21st day, read-out: Inhibition Ratio weight LLC
[12] = 27 mg/kg/day × 10 + Amputation, lung, 21st day, printed in parentheses, read-out: Inhibition Ratio metastasis
[13] = 27 mg/kg/day × 10, 21st day, read-out: Inhibition Ratio weight LLC
[14] = 27 mg/kg/day × 10, lung, 21st day, read-out: Inhibition Ratio metastasis
[15] = 54 mg/kg/day × 10, 21st day, read-out: Inhibition Ratio weight LLC
[16] = 54 mg/kg/day × 10, lung, 21st day, read-out: Inhibition Ratio metastasis
[17] = Mus musculus, B16, 504 h, read-out: B-16 melanoma Inhibition ratio

SMILES	inhibition in vivo at 300 mg/kg/day [1, 8] [%]	inhibition in vivo at 13.5 mg/kg/day [2, 9] [%]	inhibition in vivo at 13.5 mg/kg/day [2, 10] [%]	inhibition in vivo at 27 mg/kg/day [2, 11] [%]	inhibition in vivo at 27 mg/kg/day [2, 12] [%]	inhibition in vivo at 27 mg/kg/day [2, 13] [%]	inhibition in vivo at 27 mg/kg/day [2, 14] [%]	inhibition in vivo at 54 mg/kg/day [2, 15] [%]	inhibition in vivo at 54 mg/kg/day [2, 16] [%]	IC50 [4] [µg/mL]	ILS at 250 mg/kg/day ([5]; read-out: L-1210 ILS) [%]	ILS at 250 mg/kg/day ([5]; read-out: L-1210 Judgement) [%]	ILS at 500 mg/kg/day ([5]; read-out: L-1210 ILS) [%]	ILS at 500 mg/kg/day ([5]; read-out: L-1210 Judgement) [%]	inhibition in vivo at 250 mg/kg/day [1, 17] [%]	LD50 at 504 h [6] [mg/kg]	also measured
CCCC[Si](C)(C)CCSCCNC(=O)n1cc(F)c(=O)[nH]c1=O [Example 6, N-[2-[[2-(Butyldimethylsilyl)ethyl]thio]ethyl]-5-fluoro-3,4-dihydro-2,4-dioxo-1(2H)-pyrimidinecarboxamide]	53.5	37.3	18.3	30.9	23.1	39.6	92.6	38	95.1	12 (≈ 32 µM)	35	25 to 50	73	50 to 100	–	–	colon-38 Inhibition ratio ([3]; 300 mg/kg/day × 3): 81.2%
C[Si](C)(C)CCSCCCNC(=O)n1cc(F)c(=O)[nH]c1=O [Example 8, 5-Fluoro-3,4-dihydro-2,4-dioxo-N-[3-[[2-(trimethylsilyl)ethyl]thio]propyl]-1-(2H)-pyrimidinecarboxamide]	–	–	–	–	–	–	–	–	–	7 (≈ 20.1 µM)	27	25 to 50	70	50 to 100	4.3	1360	inhibition in vivo at 13 mg/kg/day ([2]; 13 mg/kg/day × 10 + Amputation, 21st day, read-out: Inhibition Ratio weight LLC): 33.3%; inhibition in vivo at 13 mg/kg/day ([2]; 13 mg/kg/day × 10 + Amputation, lung, 21st day, printed in parentheses, read-out: Inhibition Ratio metastasis): 18.4%; inhibition in vivo at 13 mg/kg/day ([2]; 13 mg/kg/day × 10, 21st day, read-out: Inhibition Ratio weight LLC): 0%; inhibition in vivo at 13 mg/kg/day ([2]; 13 mg/kg/day × 10, lung, 21st day, read-out: Inhibition Ratio metastasis): 53%; inhibition in vivo at 26 mg/kg/day ([2]; 26 mg/kg/day × 10 + Amputation, 21st day, read-out: Inhibition Ratio weight LLC): 64.9%; inhibition in vivo at 26 mg/kg/day ([2]; 26 mg/kg/day × 10 + Amputation, lung, 21st day, printed in parentheses, read-out: Inhibition Ratio metastasis): 33.6%; inhibition in vivo at 26 mg/kg/day ([2]; 26 mg/kg/day × 10, 21st day, read-out: Inhibition Ratio weight LLC): 26.2%; inhibition in vivo at 26 mg/kg/day ([2]; 26 mg/kg/day × 10, lung, 21st day, read-out: Inhibition Ratio metastasis): 92.5%; inhibition in vivo at 278 mg/kg/day ([3]; Mus musculus, 672 h, 278 mg/kg/day × 3, read-out: colon-38 Inhibition ratio): 78%
C[Si](C)(C)CCCSCCCNC(=O)n1cc(F)c(=O)[nH]c1=O [Example 10, 5-Fluoro-3,4-dihydro-2,4-dioxo-N-[3-[[3-(trimethylsilyl)propyl]thio]propyl]-1(2H)-pyrimidinecarboxamide]	–	–	–	–	–	–	–	–	–	10 (≈ 27.7 µM)	49	25 to 50	111	≥ 100	15.2	2170	inhibition in vivo at 125 mg/kg/day ([1]; Mus musculus, B16, 504 h, 125 mg/kg/day × 3, read-out: B-16 melanoma Inhibition ratio): 38.1%; inhibition in vivo at 289 mg/kg/day ([3]; Mus musculus, 672 h, 289 mg/kg/day × 3, read-out: colon-38 Inhibition ratio): 89.5%
CC(C)[Si](C)(C)CCSCCNC(=O)n1cc(F)c(=O)[nH]c1=O [Example 5, 5-Fluoro-3,4-dihydro-N-[2-[[2-(isopropyldimethylsilyl)ethyl]thio]ethyl]-2,4-dioxo-1(2H)-pyrimidinecarboxamide]	–	34.7	15.4	35.8	> 39.5	7.1	78.4	34.9	83	4 (≈ 11.1 µM)	51	25 to 50	106	≥ 100	–	–	B-16 melanoma Inhibition ratio ([1]; 300 mg/kg/day × 3): 79.7%; inhibition in vivo at 13.5 mg/kg/day ([2]; 13.5 mg/kg/day × 10, 21st day, read-out: Inhibition Ratio weight LLC): 0%; inhibition in vivo at 13.5 mg/kg/day ([2]; 13.5 mg/kg/day × 10, lung, 21st day, read-out: Inhibition Ratio metastasis): 19.3%; colon-38 Inhibition ratio ([3]; 289 mg/kg/day × 3): 89.8%; MM-46 adenocarcinoma T/C × 100 [7]: 162%
CC[Si](CC)(CC)CCSCCNC(=O)n1cc(F)c(=O)[nH]c1=O [Example 2, 5-Fluoro-3,4-dihydro-2,4-dioxo-N-[2-[[(2-triethylsilyl)ethyl]thio]ethyl]-1(2H)-pyrimidinecarboxamide]	47.2	–	–	–	–	–	–	–	–	13 (≈ 34.6 µM)	19	< 25	96	50 to 100	–	1540	inhibition in vivo at 14 mg/kg/day ([2]; 14 mg/kg/day × 10, 21st day, read-out: Inhibition Ratio weight LLC): 0%; inhibition in vivo at 14 mg/kg/day ([2]; 14 mg/kg/day × 10, lung, 21st day, read-out: Inhibition Ratio metastasis): 45.2%; inhibition in vivo at 300 mg/kg/day ([3]; Mus musculus, 672 h, 300 mg/kg/day × 3, read-out: colon-38 Inhibition ratio): 71.9%
